Assay results: patent publication US20140228445A1, “ALKYNE DERIVATIVES AS SPHINGOSINE 1-PHOSPHATE (S1P) RECEPTOR MODULATORS” (Allergan, Inc., priority 2013, published 2014)

molecular target: T1, human S1P1 receptor (Homo sapiens, UniProt P21453); test: GTP γ35S binding assay for S1P1 activity; assay type: biochemical; settings: membranes of cells stably expressing the S1P1 receptor, test range 0.08 to 5,000 nM
T1 construct: expressed in transfected cells; membranes used
Experimental: Compounds were synthesized and tested for S1P1 activity using the GTP γ^35S binding assay. These compounds may be assessed for their ability to activate or block activation of the human S1P1 receptor in cells stably expressing the S1P1 receptor.
GTP γ^35S binding was measured in the medium containing (mM) HEPES 25, pH 7.4, MgCl2 10, NaCl 100, dithitothreitol 0.5, digitonin 0.003%, 0.2 nM GTP γ^35S, and 5 μg membrane protein in a volume of 150 μl. Test compounds were included in the concentration range from 0.08 to 5,000 nM unless indicated otherwise. Membranes were incubated with 100 μM 5′-adenylylimmidodiphosphate for 30 min, and subsequently with 10 μM GDP for 10 min on ice. Drug solutions and membrane were mixed, and then reactions were initiated by adding GTP γ^35S and continued for 30 min at 25° C. Reaction mixtures were filtered over Whatman GF/B filters under vacuum, and washed three times with 3 mL of ice-cold buffer (HEPES 25, pH7.4, MgCl2 10 and NaCl 100). Filters were dried and mixed with scintillant, and counted for ^35S activity using a β-counter. Agonist-induced GTP γ^35S binding was obtained by subtracting that in the absence of agonist. Binding data were analyzed using a non-linear regression method. In case of antagonist assay, the reaction mixture contained 10 nM S1P in the presence of test antagonist at concentrations ranging from 0.08 to 5000 nM.

T1 sequence (P21453 whole entry): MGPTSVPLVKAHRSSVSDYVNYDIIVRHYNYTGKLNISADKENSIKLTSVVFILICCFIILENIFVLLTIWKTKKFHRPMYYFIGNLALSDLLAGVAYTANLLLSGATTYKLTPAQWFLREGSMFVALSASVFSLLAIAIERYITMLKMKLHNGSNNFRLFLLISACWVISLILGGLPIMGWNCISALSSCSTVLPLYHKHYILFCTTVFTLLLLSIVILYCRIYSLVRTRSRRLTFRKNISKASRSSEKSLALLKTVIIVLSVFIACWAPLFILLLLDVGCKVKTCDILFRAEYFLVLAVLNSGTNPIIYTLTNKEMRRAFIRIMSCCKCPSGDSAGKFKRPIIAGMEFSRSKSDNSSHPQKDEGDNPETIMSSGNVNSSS

| EC50 [nM] | SMILES |
| --- | --- |
| 416 | Cc1cccc(C(C#Cc2ccc(CCC(N)(CO)CO)cc2)Cc2ccc(C)c(C)c2)c1 (stereo not drawn) [Compound 3, 2-Amino-2-(2-{4-[4-(3,4-dimethylphenyl)-3-(3-methylphenyl)but-1-yn-1-yl]phenyl}ethyl)propane-1,3-diol] |
| 3.27 | Cc1ccc(CC(C#Cc2ccc(CCC(N)(CO)CO)cc2)c2cccc(F)c2)cc1C (stereo not drawn) [Compound 2, 2-Amino-2-(2-{4-[4-(3,4-dimethylphenyl)-3-(3-fluorophenyl)but-1-yn-1-yl]phenyl}ethyl)propane-1,3-diol] |
| 35.5 | Cc1ccc(CC(C#Cc2ccc(CCC(N)(CO)CO)cc2)c2cc(F)cc(F)c2)cc1C (stereo not drawn) [Compound 1, 2-Amino-2-(2-{4-[3-(3,5-difluorophenyl)-4-(3,4-dimethylphenyl)but-1-yn-1-yl]phenyl}ethyl)propane-1,3-diol] |
